Measured values: the supplement of paper PMC10307832

Tests used:
Test in all cases: relative viability (nuclei count vs DMSO), 5 days (fraction); higher = more cells survive
Vandetanib + OSI-027 = compound: COc1cc2/c(=N/c3ccc(Br)cc3F)nc[nH]c2cc1OCC1CCN(C)CC1 [Vandetanib] + COc1cccc2cc(-c3nc([C@H]4CC[C@H](C(=O)O)CC4)n4ncnc(N)c34)[nH]c12 [OSI-027] (partner 0.5 µM)
Outline: (§1)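 Lung cancer cell lines, seeded in 1536-well plates, were treated the following day by pin tool with a single drug or with five library-drug doses (not always all listed) in √10 steps on top of a fixed anchor-drug dose. Cells were fixed and nuclei stained in one step after 5 days, and nuclei were counted. Relative viability is the nuclei count for treated wells divided by that for vehicle wells, reported as medians of duplicate plates.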

NVP-TAE684 + Vorinostat = compound: COc1cc(N2CCC(N3CCN(C)CC3)CC2)ccc1Nc1ncc(Cl)c(Nc2ccccc2S(=O)(=O)C(C)C)n1 [NVP-TAE684] + O=C(CCCCCCC(=O)Nc1ccccc1)NO [Vorinostat] (partner 1 µM)
Outline: as §1

Vandetanib + Vorinostat = compound: COc1cc2/c(=N/c3ccc(Br)cc3F)nc[nH]c2cc1OCC1CCN(C)CC1 [Vandetanib] + O=C(CCCCCCC(=O)Nc1ccccc1)NO [Vorinostat] (partner 1 µM)
Outline: as §1

[1] = compound: C1=CC=C2C(=C1)N=C(S2)C(C#N)C3=NC(=NC=C3)NCCC4=CN=CC=C4 + O=C(c1cc(Cc2n[nH]c(=O)c3ccccc23)ccc1F)N1CCN(C(=O)C2CC2)CC1 [Olaparib] (partner 8 µM)
Outline: as §1

Row | Cell Line | relative viability (Vandetanib + OSI-027; first compound 0.02 µM) | relative viability (Vandetanib + OSI-027; first compound 0.06325 µM) | relative viability (Vandetanib + OSI-027; first compound 0.2 µM) | relative viability (Vandetanib + OSI-027; first compound 0.6325 µM) | relative viability (Vandetanib + OSI-027; first compound 2 µM) | relative viability (NVP-TAE684 + Vorinostat; first compound 0.2 µM) | relative viability (NVP-TAE684 + Vorinostat; first compound 2 µM) | relative viability (Vandetanib + Vorinostat; first compound 0.02 µM) | relative viability (Vandetanib + Vorinostat; first compound 0.06325 µM) | relative viability (Vandetanib + Vorinostat; first compound 0.2 µM) | relative viability (Vandetanib + Vorinostat; first compound 0.6325 µM) | relative viability (Vandetanib + Vorinostat; first compound 2 µM) | relative viability ([1]; first compound 0.005 µM) | relative viability ([1]; first compound 0.01581 µM) | relative viability ([1]; first compound 0.05 µM) | relative viability ([1]; first compound 0.1581 µM) | relative viability ([1]; first compound 0.5 µM) | relative viability (NVP-TAE684 + Vorinostat; first compound 0.6325 µM)
1 | NCI-H1734 | 0.576 | 0.605 | 0.543 | 0.611 | 0.652 | 0.846 | 0.631 | 0.87 | 0.71 | 0.755 | 0.852 | 0.815 | 0.509 | 0.616 | 0.664 | 0.633 | 0.614 | –
2 | NCI-H1915 | 0.599 | 0.575 | 0.616 | 0.648 | 0.569 | 0.579 | 0.459 | 0.497 | 0.512 | 0.535 | 0.532 | 0.505 | – | 0.266 | 0.249 | 0.283 | 0.292 | 0.547
3 | NCI-H661 | 0.721 | 0.66 | 0.668 | 0.58 | 0.629 | 0.817 | 0.445 | 0.736 | 0.798 | 0.783 | 0.867 | 0.915 | 0.543 | 0.8 | 0.723 | 0.801 | 0.613 | 0.741
4 | NCI-H2228 | 0.651 | 0.42 | 0.744 | 0.422 | 0.631 | 0.467 | 0.142 | 0.592 | 0.474 | 0.747 | 1.04 | 0.679 | 0.481 | 0.738 | 0.489 | 0.729 | 0.527 | 0.325
5 | NCI-H1975 | 0.719 | 0.728 | 0.77 | 0.683 | 0.612 | 0.694 | 0.263 | 0.71 | 0.646 | 0.709 | 0.665 | 0.636 | 0.658 | 0.866 | 0.78 | 0.913 | 0.475 | 0.666
6 | NCI-H2087 | 0.524 | 0.526 | 0.581 | 0.614 | 0.513 | 0.917 | 0.601 | 0.755 | 0.604 | 0.657 | 0.614 | 0.922 | 0.385 | 0.562 | 0.509 | 0.759 | 0.433 | 0.492
7 | LCLC-97TM1 | 0.669 | 0.324 | 0.514 | 0.394 | 0.481 | 0.548 | 0.157 | 0.711 | 0.755 | 0.719 | 0.559 | 0.755 | 0.289 | 0.362 | 0.354 | 0.592 | 0.362 | 0.589
8 | EPLC-272H | 0.319 | – | 0.305 | 0.286 | 0.265 | 0.644 | 0.2 | 0.41 | 0.466 | 0.447 | 0.441 | 0.447 | – | 0.803 | 0.733 | 0.825 | 0.517 | 0.283
9 | CAL-12T | 0.701 | 0.655 | 0.541 | 0.626 | 0.291 | 0.786 | 0.245 | 0.724 | 0.549 | 0.67 | 0.759 | 0.415 | 0.712 | 0.658 | 0.739 | 0.866 | 0.648 | 0.615
